Reference: the METLIN SMRT retention time set (Domingo-Almenara et al. 2019)

Assay: gradient 5% acetonitrile 3 min, to 50% in 2 min, to 85% in 15 min, held 3 min, 100 µL/min
Details: column: Zorbax Extend-C18 2.1 x 50 mm; eluents: water / acetonitrile, 0.1% formic acid
Outline: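 Values are retention times taken from adduct peaks that software picked and an analyst inspected. The pure standards were run as mixtures of ~100 molecules on HPLC linked to a quadrupole time-of-flight mass spectrometer, in positive and negative ionization mode. A Zorbax Extend-C18 column (2.1 × 50 mm, 1.8 μm) was used at 100 μL/min with water and acetonitrile, each including 0.1% formic acid.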

RP-LC retention time	Structure (SMILES)
916 s	Cc1ccc(C)c(Cn2nc(-c3nc(C)no3)ccc2=O)c1
614 s	CCOC(=O)c1cnc2c(C(F)(F)F)cccc2c1NCCN(C)C
618 s	Cc1c(CCC(=O)N[C@H](C)C(=O)O)c(=O)oc2c(C)c(O)ccc12
795 s	CCOC(=O)c1c(S(=O)(=O)N2CCC(C(=O)Nc3ccccc3)CC2)c(C)n(CC)c1C
931 s	COC(=O)C(Cc1c[nH]c2ccccc12)NC(=O)c1ccc(Br)cc1 (configuration not stated)
654 s	CN1CCCCCC(O)c2cc(C(=O)NC3CCCCC3)ccc21 (configuration not stated)
597 s	CS(=O)(=O)N1C[C@H]2CCN(Cc3ccc(F)cc3Cl)C[C@H]21
812 s	Cc1ccc2nc(NC(=O)C3CC(=O)N(c4n[nH]c5cccc(F)c45)C3)sc2c1 (configuration not stated)
1340 s	Cc1cccc(-c2noc(C3CCCN3S(=O)(=O)c3c(C)cc(C)cc3C)n2)c1 (configuration not stated)
704 s	COCCNCc1c(C(=O)O)c(C)n(Cc2ccc(Cl)cc2)c1C
908 s	Cc1nnc2ccc(-c3noc(-c4ccccc4Br)n3)cn12
849 s	COc1ccc(-c2cc(C(=O)NC3CCCC3)nn2C2CCS(=O)(=O)C2)cc1 (configuration not stated)
640 s	Cn1cc(CCN2CCC(C(=O)NCc3ccc(F)cc3Cl)CC2)c2cccnc21
1400 s	Cc1sc(-c2cc(C(F)(F)F)on2)cc1S(=O)(=O)N1CCN(c2ccc(Cl)cc2)CC1
566 s	c1ccc(Cn2cnnc2C2CCN(CC3CC3)CC2)cc1
967 s	CCn1c(=O)sc2cc(S(=O)(=O)N3CCC(C(=O)NC4CCC(C)CC4)CC3)ccc21 (configuration not stated)
892 s	CCOC(=O)c1sc(NC(=O)c2cccs2)nc1C
911 s	COc1ccc(N2C(=O)C3N=NN(Cc4nc(-c5cccc(C)c5)no4)C3C2=O)cc1OC (configuration not stated)
985 s	Cc1cc2nn(CC(=O)Nc3ccccc3F)c(=O)n2c(Nc2ccccc2)n1
572 s	O=C(C1CCCN1)N1CCC(OCc2nc(-c3cccnc3)no2)CC1 (configuration not stated)
839 s	COc1ccccc1-c1nnc(SCC(=O)N2CCc3ccccc32)o1
717 s	Cc1cc(N2CCN(S(=O)(=O)c3cc(F)ccc3F)CC2)nc(N2CCCC2)n1
1120 s	COCCn1c(SCc2nc(-c3ccccc3C)no2)nc2cc3c(cc2c1=O)OCO3

RP-LC retention time	Structure (SMILES)
906 s	CC(C)NC(=O)N1CCCC1c1nc(-c2cccc(Cl)c2)no1 (configuration not stated)
1100 s	Cc1cc(NC(=O)N2CCCC(C)(C(=O)NCc3ccccc3C)C2)ccc1Br (configuration not stated)
875 s	CC1CC(=O)N(CC(=O)Nc2cccc(C(F)(F)F)c2)c2ccccc2S1(=O)=O (configuration not stated)
799 s	CC1=C(c2cccc(Cl)c2)S(=O)(=O)N=C1N1CCC(NC(=O)c2ccoc2)CC1
738 s	Cc1ccc(Nc2cc(C)nc(N3CCN(C(=O)Nc4ccccc4)CC3)n2)cc1
712 s	CNC(=O)c1noc([C@@H]2CC(F)(F)CN2C(=O)c2cccn2C)n1
824 s	CCOc1cc(-c2ccc(C)cc2)nc2ccc(NC(=O)c3cccs3)cc12
881 s	Cc1cccc(Cn2nc3ccc(S(=O)(=O)N4CCCC4)cn3c2=O)c1
798 s	CCOC(=O)Nc1ccc2nc(N3CCCCCC3)sc2c1
703 s	COc1cccc(CN2CCC3(CC2)C(OC)C(=O)N3c2cccc(F)c2)n1 (configuration not stated)
680 s	COc1cccc(-c2nc(-c3ccc4c(c3)ncn4CCN3CCCCC3)no2)c1OC
937 s	CCN(CC)C(=O)N1CCC2(CC1)C(OC)C(=O)N2c1cccc(F)c1 (configuration not stated)
698 s	CC(C)NC(=O)c1ccc2c(c1)N(C)C(=O)CS2
672 s	CN(C)c1ccc(CNC(=O)C2(c3ccc(NS(C)(=O)=O)cc3)CCCCC2)cc1
719 s	CCCNC(=O)C1CCN(c2nc3ccc(-c4cncnc4)nc3s2)CC1
873 s	Cc1ccc(S(=O)(=O)c2ccc([N+](=O)[O-])o2)cc1
814 s	Cc1c(Cl)cccc1N1C(=O)CN(S(C)(=O)=O)CC1(C)C(=O)NCc1ccc(F)cc1 (configuration not stated)
1050 s	CCOc1cccc(-c2noc(Cn3c(=O)n(-c4ccccc4F)c(=O)c4sccc43)n2)c1
774 s	COc1ccc(Oc2ncc(-c3ccc(C(=O)NC4CC4)cc3)cn2)cc1
603 s	CS(=O)(=O)N(Cc1ccccn1)C1CN(C(=O)C2CCC2)C1
782 s	COc1ccc(-c2nc3ccc(C)cn3c2Nc2ccc(Cl)cc2)cc1
610 s	CCOc1ccccc1N1CC(c2nc3ccccc3n2CCN2CCOCC2)CC1=O (configuration not stated)
1010 s	CCc1cccc(C)c1Nc1c(-c2ccc(F)cc2)nc2cnccn12

RP-LC retention time	Structure (SMILES)
630 s	CCn1c(CCc2ccccc2NS(=O)(=O)c2c(C)n[nH]c2C)nc2ccccc21
691 s	CC(C)NCc1ccc(-c2cccc(Cl)c2)o1
995 s	CC1CCN(C(=O)c2ccc(OCC3CCCN(C(=O)c4ccc(F)cc4)C3)cc2)CC1 (configuration not stated)
680 s	Cc1ccc(NC(=O)Cn2cnc3nc(N4CCCC(C(=O)NC5CC5)C4)sc3c2=O)c(F)c1 (configuration not stated)
1030 s	COc1ccc(-c2c(C(=O)Nc3cc(OC)ccc3OC)nc3ccccn23)cc1
878 s	CC(C)c1cccc(NC(=O)Cn2ccc3sccc3c2=O)c1
859 s	COc1ccccc1NC(=O)N1CCCC(C)(C(=O)NCc2ccccc2C)C1 (configuration not stated)
823 s	COC(=O)c1ccsc1NC(=O)CS(=O)(=O)Cc1ccccc1
776 s	Cc1nc(NC(=O)N2CCC[C@H]2C(N)=O)sc1-c1csc(C(C)(C)C)n1
546 s	Cn1c(=O)c2ccn(CC(=O)N3CCN(c4ccccn4)CC3)c2n(C)c1=O
571 s	Cc1nn(C2CCS(=O)(=O)C2)c(C)c1C(=O)O (configuration not stated)
883 s	O=C(Nc1ccc2c(c1)OCO2)c1noc2c1CCCC2
644 s	O=C(NCC1CCCCC1)C1CCN(c2cncnc2N2CCOCC2)CC1
631 s	O=C(c1ccco1)N1CCN(C(=O)C2CCN(c3nc4ccccc4[nH]c3=O)CC2)CC1
843 s	CC1CC(=O)N(CC(=O)Nc2ccc(Cl)cc2)c2ccccc2S1(=O)=O (configuration not stated)
674 s	Cc1ccnc(NC(=O)Cn2ccc3ccc(-c4nnc(C)o4)cc32)c1
670 s	CCCNC(=O)C1CCCN(c2ccc(SCC(=O)Nc3cccc(F)c3)nn2)C1 (configuration not stated)
982 s	CCN1C(=O)C(C)(C(=O)Nc2cc(C)cc(C)c2)Oc2cccnc21 (configuration not stated)
569 s	CN(C)CCNC(=O)CCc1cc2ccccc2[nH]c1=O
751 s	COc1ncc(C(=O)NCc2ccc(Cl)cc2)cn1
893 s	COc1ccc2c(c1)C1CC(C)(NC(=O)C1S(=O)(=O)c1ccc(C)cc1)O2 (configuration not stated)
1240 s	Cc1ccc(NS(=O)(=O)c2c(C)sc(C)c2-c2cc(C(F)(F)F)on2)c(C)c1
623 s	Cc1nn(C)c(C)c1CNC(=O)CN1CCN(Cc2ccc(F)cc2)C1=O

RP-LC retention time	Structure (SMILES)
663 s	CCCNC(=O)C1CCN(c2ccc(SCC(=O)NCc3ccc(C)c(C)c3)nn2)CC1
927 s	CCNC(=O)Cn1c(=O)c2cnc(-c3ccc(Cl)cc3)nc2n(C)c1=O
669 s	CCC(C)NC(=O)C1CCN(S(=O)(=O)c2cn(C(C)C)cn2)CC1 (configuration not stated)
756 s	COc1ncc(C(=O)NC(C)c2ccc(F)cc2)cn1 (configuration not stated)
1210 s	O=C(c1ccc(Cl)c(Cl)c1)N1CCN(c2nc(-c3ccccc3)cs2)CC1
883 s	CCn1nccc1-c1cccc(-c2noc(-c3cnccn3)n2)c1
942 s	O=C(CSc1ccc(NC(=O)c2cccs2)nn1)Nc1cccc(Cl)c1Cl
862 s	CCCS(=O)(=O)NCc1ccc2c(c1)CCN2C(=O)CC(C)C
680 s	COc1ncc(C(=O)NCc2ccccc2F)cn1
630 s	CCC(=O)Nc1ccc2c(c1)Sc1ncccc1C(=O)N2C
740 s	O=C(Nc1ccc(CC(=O)N2CCOCC2)cc1)NC(c1ccccc1)c1ccccc1
698 s	CCC(Oc1ccc(=O)n(-c2cc(Cl)ccc2C)n1)C(=O)NCCOC (configuration not stated)
935 s	C#CCSc1nc2ccc([N+](=O)[O-])cc2s1
612 s	CC(NC(=O)c1cc2ccccc2[nH]1)C(=O)N1CCN(c2ccccn2)CC1 (configuration not stated)
967 s	CC1=NS(=O)(=O)N(C)C=C1C(=O)OCc1cccc(C)c1
834 s	CC(C)n1cnc(S(=O)(=O)N2CCC(C(=O)Nc3ccc(Br)cc3F)CC2)c1
656 s	CCN(CC)CCNC(=O)CN1CC(C)Sc2ccccc21 (configuration not stated)
785 s	O=C(NCc1cccc(Cl)c1)c1ccc(CN2CCN(C3CCCC3)C(=O)C2=O)cc1
796 s	Cc1noc(C)c1S(=O)(=O)N1CCCC(c2nc(CNC(=O)C(C)C)cs2)C1 (configuration not stated)
1170 s	Clc1ccc(-c2csc(NCc3ccccc3)n2)cc1
770 s	CN1CCc2c(c(CNC(=O)c3cc(CN4CCOCC4)on3)nn2C)C1
688 s	O=c1nc(Oc2ccccc2)nc2ncccn12

Structure (SMILES)	RP-LC retention time
CCOCCCNC(=O)N1[C@H]2CC[C@@H]1c1cnc(-c3ccccc3)nc1C2	778 s
